Among the test systems are Escherichia coli AB94012; Staphylococcus aureus; Citrobacter freundii; Klebsiella pneumoniae.
Holding throughout (experiment): ≥ marks a high value that may be exact or a test limit, other limits are often not marked, values filed in µg/mL are converted to µM
Experiment [1] has as its system Staphylococcus epidermidis 154.
In experiment [2] the test system is Staphylococcus epidermidis ATCC 12228.
For experiment [3], the system named is Staphylococcus aureus AB6538.
Experiment [4] relates to Escherichia coli ATCC 25922.
In experiment [5] the test system is Pseudomonas aeruginosa ATCC 9027.
In experiment [6] the test system is Pseudomonas aeruginosa ATCC 27853.
Experiment [7] deals with Bacillus subtilis DSM 347.
The subject of experiment [8] is Franconibacter helveticus DSM 18390.
Experiment [9] relates to Escherichia coli DSM 1116.
Experiment [10] relates to Staphylococcus xylosus DSM 20287.
In experiment [11] the test system is Shigella flexneri ATCC 203.
The test system of experiment [12] is Candida albicans ATCC 36232.
Experiment [13] concerns Staphylococcus aureus ATCC 6538.
In experiment [14] the test system is Escherichia coli ATCC 2592.
In experiment [15] the test system is Micrococcus luteus ATCC 9341.
Experiment [16] has as its system Proteus vulgaris ATCC 6380.
The test system of experiment [17] is Staphylococcus haemolyticus.
In experiment [18] the test system is Salmonella enterica subsp. enterica serovar Paratyphi A.
The test system of experiment [19] is Staphylococcus aureus HNCMO 112011.
In experiment [20] the test system is Escherichia coli ATCC 8739.
Experiment [21] has as its system Acinetobacter baumannii ATCC 17978.
In experiment [22] the test system is Staphylococcus hominis ATCC 27844.
For experiment [23], the system named is Candida albicans ATCC 10231.
Experiment [24] has as its system Pseudomonas aeruginosa ATCC 15442.
Experiment [25] has as its system Enterococcus faecalis ATCC 2912.
Experiment [26] has as its system Saccharomyces cerevisiae NBRC 10217.
The subject of experiment [27] is Escherichia coli NBRC 14237.
Experiment [28] relates to Staphylococcus aureus NBRC 12732.

≈ marks a conversion by molar mass, not a printed value.

A word on the MIC: it is the lowest concentration found to suppress growth. A low value points to inhibition by little substance.

Take `CC(C)C[C@H](NC(=O)[C@H](Cc1ccc(O)cc1)NC(=O)[C@H](Cc1ccc(O)cc1)NC(=O)CNC(=O)[C@H](Cc1c[nH]c2ccccc12)NC(=O)[C@H](CO)NC(=O)[C@H](CO)NC(=O)[C@H](Cc1c[nH]c2ccccc12)NC(=O)[C@H](CC(C)C)NC(=O)[C@H](CCCCN)NC(=O)[C@@H](NC(=O)[C@@H](NC(=O)[C@H](CC(C)C)NC(=O)[C@@H](N)CC(=O)O)[C@@H](C)O)[C@@H](C)O)C(=O)NCC(=O)N[C@@H](CCCCN)C(=O)N[C@@H](CCCCN)C(=O)N[C@@H](C)C(=O)N[C@@H](CCCN=C(N)N)C(=O)N[C@@H](Cc1c[nH]c2ccccc12)C(=O)N[C@@H](CC(N)=O)C(=O)N[C@@H](CC(C)C)C(=O)N[C@@H](CCCCN)C(=O)N[C@@H](Cc1cnc[nH]1)C(=O)N1CCC[C@H]1C(=O)N[C@@H](Cc1ccc(O)cc1)C(=O)N[C@H](C(=O)N[C@@H](CCC(N)=O)C(=O)N[C@@H](Cc1ccccc1)C(=O)O)C(C)C` [DLTTKLWSSWGYYLGKKARWNLKHPYVQF]: the MIC in [1] is 25 µM (≈ 89.7 µg/mL); in experiment [2], 12.5 µM (≈ 44.8 µg/mL).
Consider `CC[C@H](C)[C@H](NC(=O)[C@H](CCCCN)NC(=O)[C@@H]1CCCN1C(=O)[C@H](CC(C)C)NC(=O)[C@@H](NC(=O)[C@H](CCCCN)NC(=O)[C@H](CCCCN)NC(=O)[C@H](CC(C)C)NC(=O)[C@@H](NC(=O)[C@H](CCCCN)NC(=O)[C@H](CCCCN)NC(=O)[C@H](CC(C)C)NC(=O)[C@H](CC(C)C)NC(=O)[C@H](CCCCN)NC(=O)[C@H](CC(C)C)NC(=O)[C@@H](N)Cc1ccccc1)C(C)C)C(C)C)C(=O)N[C@@H](Cc1ccccc1)C(=O)N[C@@H](CCCCN)C(N)=O` [FLKLLKKVLKKVLPKIFK], for which the MIC in experiment [3] amounted to 2.86 µM (≈ 6.25 µg/mL); in [4], 2.86 µM (≈ 6.25 µg/mL); in the experiment with Escherichia coli AB94012, 2.86 µM (≈ 6.25 µg/mL); in experiment [5], 5.72 µM (≈ 12.5 µg/mL); in experiment [6], 5.72 µM (≈ 12.5 µg/mL).
In the case of `CC[C@H](C)[C@H](N)C(=O)N[C@@H](C)C(=O)NCC(=O)N[C@@H](CCCCN)C(=O)N[C@H](C(=O)N[C@@H](C)C(=O)N[C@@H](CCCCN)C(=O)N[C@H](C(=O)N[C@@H](C)C(=O)NCC(=O)N[C@@H](CCCCN)C(=O)N[C@H](C(=O)N[C@@H](C)C(=O)N[C@@H](CCCCN)C(=O)N[C@H](C(=O)N[C@@H](C)C(=O)NCC(=O)N[C@@H](CCCCN)C(=O)N[C@H](C(=O)N[C@@H](C)C(N)=O)[C@@H](C)CC)[C@@H](C)CC)[C@@H](C)CC)[C@@H](C)CC)[C@@H](C)CC` [IAGKIAKIAGKIAKIAGKIA], the MIC in experiment [7] was found to be 1.46 µM (≈ 2.83 µg/mL); in experiment [8], 2.92 µM (≈ 5.65 µg/mL); in experiment [9] it was 4.13 µM (≈ 8 µg/mL); in experiment [10] it was 2.07 µM (≈ 4 µg/mL).
As to `CC(C)[C@H](NC(=O)[C@H](CCCCN)NC(=O)[C@@H](N)CCCCN)C(=O)N[C@H](C(=O)N[C@@H](Cc1ccccc1)C(=O)N[C@@H](CCCCN)C(=O)N[C@@H](Cc1ccccc1)C(=O)N[C@@H](CCCCN)C(=O)N[C@@H](Cc1ccccc1)C(=O)N[C@@H](CCCCN)C(N)=O)C(C)C` [KKVVFKFKFK], the MIC is 2.4 µM (≈ 3.12 µg/mL) in [11]; 0.601 µM (≈ 0.779 µg/mL) in experiment [2]; 0.601 µM (≈ 0.779 µg/mL) in experiment [12]; 2.4 µM (≈ 3.12 µg/mL) in experiment [13]; 2.4 µM (≈ 3.12 µg/mL) in experiment [14]; 0.601 µM (≈ 0.779 µg/mL) in experiment [15]. The MIC is 2.4 µM (≈ 3.12 µg/mL) in experiment [5], at least 77 µM in experiment [16] and 4.81 µM (≈ 6.25 µg/mL) against Staphylococcus aureus.
For `CC(C)C[C@H](NC(=O)[C@H](CCCCN)NC(=O)[C@H](CC(C)C)NC(=O)[C@H](CCCCN)NC(=O)[C@H](CS)NC(=O)[C@H](CC(C)C)NC(=O)[C@H](Cc1c[nH]c2ccccc12)NC(=O)CNC(=O)[C@H](CCCCN)NC(=O)[C@H](CS)NC(=O)[C@@H]1CCCN1C(=O)[C@@H](N)CCCCN)C(=O)N[C@@H](CCCN=C(N)N)C(=O)O` [KPCKGWLCKLKLR], the MIC is 1.91 µM (≈ 3 µg/mL) in [17], 7.63 µM (≈ 12 µg/mL) in the experiment on Citrobacter freundii, 3.81 µM (≈ 6 µg/mL) against Klebsiella pneumoniae and 3.81 µM (≈ 6 µg/mL) in [18].
As for `CC(C)C[C@H](NC(=O)[C@@H]1CCCN1C(=O)[C@H](CCCN=C(N)N)NC(=O)[C@H](CCCN=C(N)N)NC(=O)[C@H](CS)NC(=O)[C@H](CCC(N)=O)NC(=O)[C@@H](N)CCC(N)=O)C(=O)N[C@@H](Cc1ccc(O)cc1)C(=O)N[C@@H](CS)C(=O)N[C@@H](CCCN=C(N)N)C(=O)N[C@@H](CCCN=C(N)N)C(=O)N[C@@H](CCCN=C(N)N)C(=O)O` [QQCRRPLYCRRR], the MIC in experiment [19], in experiment [20] and in experiment [21] was 25 µM (≈ 40.9 µg/mL) in each case.
Turning to `CSCC[C@H](NC(=O)[C@H](CCC(N)=O)NC(=O)[C@H](CO)NC(=O)CNC(=O)[C@H](CCCCN)NC(=O)[C@@H](N)CCCN=C(N)N)C(=O)NCC(=O)N[C@@H](CCCCN)C(=O)N[C@@H](CCCCN)C(=O)N[C@@H](CS)C(=O)N[C@@H](CCC(=O)O)C(=O)N[C@@H](CS)C(=O)N1CCC[C@H]1C(=O)O` [RKGSQMGKKCECP], the minimum inhibitory concentration (MIC) in experiment [22] is at least 40 µM; in experiment [4], 13 µM (≈ 18.9 µg/mL); in experiment [23], 3.2 µM (≈ 4.65 µg/mL); in experiment [13], 3.2 µM (≈ 4.65 µg/mL); in experiment [24], 13 µM (≈ 18.9 µg/mL); in experiment [25], at least 40 µM.
`CC(C)C[C@H](NC(=O)[C@H](CO)NC(=O)[C@H](CO)NC(=O)[C@H](CCCN=C(N)N)NC(=O)[C@H](CCCN=C(N)N)NC(=O)[C@H](CCCN=C(N)N)NC(=O)[C@H](CO)NC(=O)[C@H](CC(C)C)NC(=O)[C@H](Cc1c[nH]c2ccccc12)NC(=O)[C@@H](N)Cc1c[nH]c2ccccc12)C(=O)N[C@@H](Cc1ccccc1)C(=O)N[C@@H](Cc1ccc(O)cc1)C(=O)N[C@@H](Cc1c[nH]c2ccccc12)C(=O)N[C@@H](CCCN=C(N)N)C(=O)O` [WWLSRRRSSLFYWR]: the figures for the MIC in [26], in experiment [27] and in [28] were 12.5 µM (≈ 25 µg/mL), 3.12 µM (≈ 6.25 µg/mL) and 3.12 µM (≈ 6.25 µg/mL), respectively.

Values taken from DBAASP.
